In PubChem BioAssay (NCI):
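The concentration for 50% growth inhibition is given as GI50. TGI: concentration producing complete growth inhibition.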

Tests used:
Test in all cases: NCI anticancer screen, dose series, 384-well format; in the data active = GI50 below about 0.43 µM; inactive = the rest
MDA-MB-435 melanoma = tested on: MDA-MB-435 melanoma
NCI-H522 lung = tested on: NCI-H522 lung
UO-31 renal = tested on: UO-31 renal
A549 NSCLC = tested on: A549 NSCLC
ACHN renal = tested on: ACHN renal
RXF 393 renal = tested on: RXF 393 renal
NCI-H322M lung = tested on: NCI-H322M lung
786-0 renal = tested on: 786-0 renal
OVCAR-3 ovarian = tested on: OVCAR-3 ovarian
CAKI-1 renal = tested on: CAKI-1 renal
NCI-H226 lung = tested on: NCI-H226 lung
SN12C renal = tested on: SN12C renal
MDA-MB-468 breast = tested on: MDA-MB-468 breast
TK-10 renal = tested on: TK-10 renal
SNB-19 CNS = tested on: SNB-19 CNS
HL-60(TB) leukemia = tested on: HL-60(TB) leukemia
RPMI-8226 leukemia = tested on: RPMI-8226 leukemia
A498 renal = tested on: A498 renal
HOP-62 NSCLC = tested on: HOP-62 NSCLC
HCC-2998 colon = tested on: HCC-2998 colon
UACC-257 melanoma = tested on: UACC-257 melanoma
HOP-92 NSCLC = tested on: HOP-92 NSCLC
HT29 colon = tested on: HT29 colon
EKVX NSCLC = tested on: EKVX NSCLC
LOX IMVI melanoma = tested on: LOX IMVI melanoma
M14 melanoma = tested on: M14 melanoma
MALME-3M melanoma = tested on: MALME-3M melanoma
SK-OV-3 ovarian = tested on: SK-OV-3 ovarian
PC-3 prostate = tested on: PC-3 prostate
SF-539 CNS = tested on: SF-539 CNS
DU-145 prostate = tested on: DU-145 prostate
MDA-MB-231 breast = tested on: MDA-MB-231 breast
NCI-H460 NSCLC = tested on: NCI-H460 NSCLC
SNB-75 CNS = tested on: SNB-75 CNS
KM12 colon = tested on: KM12 colon
HCT-15 colon = tested on: HCT-15 colon
NCI/ADR-RES ovarian = tested on: NCI/ADR-RES ovarian
SW-620 colon = tested on: SW-620 colon
CCRF-CEM leukemia = tested on: CCRF-CEM leukemia
HS 578T breast = tested on: HS 578T breast
SR leukemia = tested on: SR leukemia
SF-295 CNS = tested on: SF-295 CNS
MCF7 breast = tested on: MCF7 breast
NCI-H23 lung = tested on: NCI-H23 lung
IGROV1 ovarian = tested on: IGROV1 ovarian
MOLT-4 leukemia = tested on: MOLT-4 leukemia
T-47D breast = tested on: T-47D breast
SK-MEL-5 melanoma = tested on: SK-MEL-5 melanoma
COLO 205 colon = tested on: COLO 205 colon
U251 glioblastoma = tested on: U251 glioblastoma
K-562 leukemia = tested on: K-562 leukemia
SF-268 CNS = tested on: SF-268 CNS
OVCAR-4 ovarian = tested on: OVCAR-4 ovarian
OVCAR-8 ovarian = tested on: OVCAR-8 ovarian
UACC-62 melanoma = tested on: UACC-62 melanoma
SK-MEL-28 melanoma = tested on: SK-MEL-28 melanoma
OVCAR-5 ovarian = tested on: OVCAR-5 ovarian

CN[C@@H](C)C(=O)N[C@H](C(=O)N1CCC[C@H]1C(=O)Nc1snnc1-c1ccccc1)C1CCCCC1
11.9 µM: TGI (NCI-H522 lung)
36.2 µM: TGI (OVCAR-8 ovarian)
40.9 µM: TGI (HCC-2998 colon)
15.5 µM: TGI (HL-60(TB) leukemia)
0.046 µM: TGI (OVCAR-4 ovarian)
> 100 µM: TGI (MDA-MB-435 melanoma) | TGI (UO-31 renal) | TGI (A549 NSCLC) | TGI (NCI-H322M lung) | TGI (786-0 renal) | TGI (OVCAR-3 ovarian) | TGI (CAKI-1 renal) | TGI (NCI-H226 lung) | TGI (SN12C renal) | TGI (SNB-19 CNS) | TGI (EKVX NSCLC) | TGI (LOX IMVI melanoma) | TGI (PC-3 prostate) | TGI (SF-539 CNS) | TGI (DU-145 prostate) | TGI (NCI-H460 NSCLC) | TGI (SNB-75 CNS) | TGI (KM12 colon) | TGI (HCT-15 colon) | TGI (SW-620 colon) | TGI (HS 578T breast) | TGI (SF-295 CNS) | TGI (MCF7 breast) | TGI (NCI-H23 lung) | TGI (IGROV1 ovarian) | TGI (T-47D breast) | TGI (COLO 205 colon) | TGI (U251 glioblastoma) | TGI (SF-268 CNS) | TGI (OVCAR-5 ovarian)
18.1 µM: TGI (SK-MEL-5 melanoma)
inactive: GI50 (MDA-MB-435 melanoma) 31.2 µM | GI50 (NCI-H522 lung) 2.44 µM | GI50 (UO-31 renal) 8.13 µM | GI50 (A549 NSCLC) > 100 µM | GI50 (ACHN renal) 17.4 µM | GI50 (RXF 393 renal) 0.444 µM | GI50 (NCI-H322M lung) > 100 µM | GI50 ([…]-0 renal) 31.1 µM | GI50 (OVCAR-3 ovarian) 26.2 µM | GI50 (CAKI-1 renal) 52.1 µM | GI50 (NCI-H226 lung) 70.7 µM | GI50 (SN12C renal) > 100 µM | GI50 (MDA-MB-468 breast) 6.93 µM | GI50 (TK-10 renal) 18.6 µM | GI50 (SNB-19 CNS) > 100 µM | GI50 (RPMI-8226 leukemia) 22.7 µM | GI50 (A498 renal) 26.4 µM | GI50 (HOP-62 NSCLC) 11.2 µM | GI50 (HCC-2998 colon) 21.5 µM | GI50 (UACC-257 melanoma) 16.6 µM | GI50 (HOP-92 NSCLC) 18.1 µM | GI50 (HT29 colon) 17.3 µM | GI50 (EKVX NSCLC) 97.3 µM | GI50 (LOX IMVI melanoma) 37.9 µM | GI50 (M14 melanoma) 28.2 µM | GI50 (PC-3 prostate) 45.6 µM | GI50 (SF-539 CNS) 40.1 µM | GI50 (DU-145 prostate) 49.9 µM | GI50 (NCI-H460 NSCLC) 38.7 µM | GI50 (SNB-75 CNS) 38.7 µM | GI50 (KM12 colon) 60.1 µM | GI50 (HCT-15 colon) 80.7 µM | GI50 (NCI/ADR-RES ovarian) 5.89 µM | GI50 (SW-620 colon) > 100 µM | GI50 (CCRF-CEM leukemia) 10.9 µM | GI50 (HS 578T breast) 34.5 µM | GI50 (SR leukemia) 13.5 µM | GI50 (SF-295 CNS) 64 µM | GI50 (MCF7 breast) 31.7 µM | GI50 (NCI-H23 lung) 14.2 µM | GI50 (IGROV1 ovarian) 64.5 µM | GI50 (MOLT-4 leukemia) 17.8 µM | GI50 (T-47D breast) 45.5 µM | GI50 (SK-MEL-5 melanoma) 0.845 µM | GI50 (COLO 205 colon) 34.5 µM | GI50 (U251 glioblastoma) 59.7 µM | GI50 (K-562 leukemia) 19.1 µM | GI50 (SF-268 CNS) > 100 µM | GI50 (OVCAR-8 ovarian) 16.5 µM | GI50 (UACC-62 melanoma) 30.1 µM | GI50 (SK-MEL-28 melanoma) 22.7 µM | GI50 (OVCAR-5 ovarian) 59.1 µM
active: GI50 (HL-60(TB) leukemia) 0.412 µM | GI50 (MALME-3M melanoma) 0.0294 µM | GI50 (MDA-MB-231 breast) 0.0979 µM | GI50 (OVCAR-4 ovarian) 0.0142 µM
32.5 µM: TGI (UACC-257 melanoma)
33.2 µM: TGI (HOP-62 NSCLC)
35.7 µM: TGI (HT29 colon)
35.6 µM: TGI (MOLT-4 leukemia)
57.2 µM: TGI (RPMI-8226 leukemia)
39.5 µM: TGI (ACHN renal)
2.78 µM: TGI (SK-OV-3 ovarian)
23.8 µM: TGI (RXF 393 renal)
33.6 µM: TGI (SR leukemia)
64.4 µM: TGI (SK-MEL-28 melanoma)
74.6 µM: TGI (A498 renal)
2.51 µM: TGI (MDA-MB-231 breast)
91.5 µM: TGI (UACC-62 melanoma)
0.392 µM: TGI (MALME-3M melanoma)
35.3 µM: TGI (K-562 leukemia)
46.2 µM: TGI (TK-10 renal)
26.9 µM: TGI (MDA-MB-468 breast)
45.2 µM: TGI (NCI/ADR-RES ovarian)
73.6 µM: TGI (HOP-92 NSCLC)
72.7 µM: TGI (M14 melanoma)
32.2 µM: TGI (CCRF-CEM leukemia)
